From patent US12612413B2, “Heteroaryl compounds as inhibitors of programmed necrosis pathway, composition and method using the same” (ACCRO BIOSCIENCE INC., priority 2020, dated 2026)
Structures can show the parent of a compound that is named as a salt.

system: HT-29 cells; test: HT-29 cell viability (necroptosis) assay; format: cell-based; settings: Homo sapiens, TNF-α (40 ng/mL), Smac mimetic (100 nM), z-VAD (20 μM), 40 h, from survival rate curve
Description: Human colon cancer HT-29 cells were used in a necroptosis assay. For this assay, HT-29 cells were added to 96-well plates. The compounds at different concentrations (0.3, 1.0, 3.0, 10.0, 20.0 μM) were then preprocessed for two hours. TNF-α (40 ng/mL), Smac mimetic (100 nM) and z-VAD (20 μM) were added, and the mixture was incubated for 40 h. Quantitative analysis of cell viability was conducted. DMSO pretreatment group was used as a negative control. Concentration for 50% of maximal effect was calculated according to the curve of the survival rate measured at different concentrations. FIG. 1 depicts the EC50 curves of compound A16.

`CC1=CS(=O)(=O)c2cc3c(Nc4cc(O)c(F)cc4F)ccnc3cc21` [Compound A83] and `O=S1(=O)C=C(C2CC2)c2cc3nccc(Nc4cc(O)c(F)cc4F)c3cc21` [Compound A100] are within 1.5-fold of each other in EC50: 1000 nM for the first, 950 nM for the second.

`O=S1(=O)C=C(C2CC2)c2cc3nccc(Nc4cc(O)ccc4F)c3cc21` [Compound A89] and `Cc1ccc(O)cc1Nc1ccnc2cc3c(cc12)S(=O)(=O)C=C3C1CC1` [Compound A95] are within 1.5-fold of each other in EC50: 220 nM for the first, 300 nM for the second.

Compared with `O=S1(=O)C=C(C2CC2)c2cc3nccc(Nc4ccc5cn[nH]c5c4)c3cc21` [Compound A91], `O=S1(=O)C=C(C2CC2)c2cc3nccc(Nc4ccc5nn[nH]c5c4)c3cc21` [Compound A92] is 2.6-fold higher in EC50: 160 nM for the first, 420 nM for the second. The first is the more potent here.

First: Cc1[nH]nc(Nc2ccnc3cc4c(cc23)S(=O)(=O)C=C4C2CC2)c1C [Compound A96]
Second: O=S1(=O)C=C(C2CC2)c2cc3nccc(Nc4cncc(O)c4)c3cc21 [Compound A102]
The EC50 of the first is 15-fold lower: 590 nM for the first, 9000 nM for the second.

First: O=S1(=O)C=C(C2CC2)c2cc3nccc(Nc4cc(O)c(Cl)cc4F)c3cc21 [Compound A101]
Second: CC1(C)C(=O)c2cc3nccc(Nc4cc(O)c(Cl)cc4F)c3cc2S1(=O)=O [Compound B16]
The EC50 of the first is 3.1-fold lower: 400 nM for the first, 1260 nM for the second.

Compared with `O=S1(=O)C=C(C2CC2)c2cc3nccc(Nc4ccn5ccnc5c4)c3cc21` [Compound A104], `O=S1(=O)C=C(OC2COC2)c2cc3nccc(Nc4ccc5scnc5c4)c3cc21` [Compound A118] is 41-fold lower in EC50: 12000 nM for the first, 290 nM for the second. The second is the more potent here.

First: Cc1ccc(O)cc1Nc1ccnc2cc3c(cc12)S(=O)(=O)C=C3 [Compound A107]
Second: Cc1ccc(O)cc1Nc1ccnc2cc3c(cc12)S(=O)(=O)C(C)(C)C3=O [Compound B13]
The EC50 of the first is 2-fold higher: 1060 nM for the first, 520 nM for the second.

Going from `COc1c2c(cc3c(Nc4ccc5scnc5c4)ccnc13)S(=O)(=O)C=C2` [Compound A108] to `O=C1CS(=O)(=O)c2cc3c(Nc4ccc5scnc5c4)ccnc3cc21` [Compound B3, 8-(benzo[d]thiazol-5-ylamino)thieno[2,3-g]quinolin-3(2H)-one 1,1-dioxide hydrochloride], the EC50 rises from 630 nM to 3240 nM (5.1-fold). The first is the more potent here.

Compared with `NCCOC1=CS(=O)(=O)c2cc3c(Nc4ccc5scnc5c4)ccnc3cc21` [Compound A110], `O=S1(=O)C=C(OC2CCOC2)c2cc3nccc(Nc4ccc5scnc5c4)c3cc21` (stereo not drawn) [Compound A115] is 7.4-fold lower in EC50: 2080 nM for the first, 280 nM for the second.

First: O=S1(=O)C=C(OC2CCNC2)c2cc3nccc(Nc4ccc5scnc5c4)c3cc21 (stereo not drawn) [Compound A113]
Second: O=S1(=O)C=C(O[C@@H]2CCOC2)c2cc3nccc(Nc4ccc5scnc5c4)c3cc21 [Compound A116]
The EC50 of the first is 7.7-fold higher: 1990 nM for the first, 260 nM for the second.

`CN1CCC(OC2=CS(=O)(=O)c3cc4c(Nc5ccc6scnc6c5)ccnc4cc32)C1` (stereo not drawn) [Compound A114] and `O=S1(=O)C=C(O[C@H]2CCOC2)c2cc3nccc(Nc4ccc5scnc5c4)c3cc21` [Compound A117] are within 1.5-fold of each other in EC50: 310 nM for the first, 390 nM for the second.

Going from `CC1(C)C(O)c2cc3nccc(Nc4ccc5scnc5c4)c3cc2S1(=O)=O` (stereo not drawn) [Compound B9] to `O=S1(=O)CC2(CCCO2)c2cc3nccc(Nc4ccc5scnc5c4)c3cc21` (stereo not drawn) [Compound B27], the EC50 rises from 620 nM to 2200 nM (3.5-fold). The first is the more potent here.

Going from `CC1(C)C(=O)c2cc3nccc(Nc4cc(O)ccc4F)c3cc2S1(=O)=O` [Compound B14] to `CC1(C)C(=O)c2cc3nccc(Nc4cc(O)c(F)cc4F)c3cc2S1(=O)=O` [Compound B15], the EC50 rises from 320 nM to 720 nM (2.2-fold). The first is the more potent here.

same assay, conditions: Homo sapiens, compound at 20 μM, TNF-α (40 ng/mL), Smac mimetic (100 nM), z-VAD (20 μM), 40 h, read-out: HT-29(20 μM) Survival

Going from `CC1=Cc2cc3nccc(Nc4ccn5ncnc5c4)c3cc2S1(=O)=O` [Compound A69] to `CC1=Cc2cc3nccc(Nc4cc(F)cc(F)n4)c3cc2S1(=O)=O` [Compound A70], the viability at 20 µM rises from 10.5% to 16.5%.

Compared with `CC1=Cc2cc3nccc(Nc4cc(N)cc(F)n4)c3cc2S1(=O)=O` [Compound A71, 8-((4-amino-6-fluoropyridin-2-yl)amino)-2-methylthieno[2,3-g]quinoline 1,1-dioxide], `CC1=C(C)S(=O)(=O)c2cc3c(Nc4cc(N)ccc4C)ccnc3cc21` [Compound A87] is lower in viability at 20 µM: 23.4% for the first, 15.5% for the second.

`CC1=CS(=O)(=O)c2cc3c(Nc4ccc5cn[nH]c5c4)ccnc3cc21` [Compound A72] and `CC1=CS(=O)(=O)c2cc3c(Nc4n[nH]c5ccc(F)cc45)ccnc3cc21` [Compound A73] are the same in viability at 20 µM: 40.7% for the first, 40.7% for the second.

First: CC1=CS(=O)(=O)c2cc3c(Nc4n[nH]c(C)c4C)ccnc3cc21 [Compound A75]
Second: CC1=CS(=O)(=O)c2cc3c(Nc4cc(O)ccc4C)ccnc3cc21 [Compound A76]
The viability at 20 µM of the first is lower: 32.3% for the first, 33.8% for the second.

Compared with `CC(=O)Nc1ccc(C)c(Nc2ccnc3cc4c(cc23)S(=O)(=O)C=C4C)c1` [Compound A77], `CC(=O)Nc1ccc(C)c(Nc2ccnc3cc4c(cc23)S(=O)(=O)C(C)=C4C)c1` [Compound A86] is higher in viability at 20 µM: 12.9% for the first, 20.5% for the second.

Going from `CC1=CS(=O)(=O)c2cc3c(Nc4cc(N)ccc4C)ccnc3cc21` [Compound A78] to `CC1=CS(=O)(=O)c2cc3c(Nc4ccc(O)cc4C)ccnc3cc21` [Compound A80], the viability at 20 µM rises from 10.5% to 14.4%.

Going from `CC1=CS(=O)(=O)c2cc3c(Nc4cc(O)ccc4F)ccnc3cc21` [Compound A79] to `CC1=CS(=O)(=O)c2cc3c(Nc4ccc(O)cc4F)ccnc3cc21` [Compound A81], the viability at 20 µM falls from 39.4% to 28.8%.

Going from `CC1=CS(=O)(=O)c2cc3c(Nc4cc(O)cc(C(F)(F)F)c4)ccnc3cc21` [Compound A82] to `N#Cc1cc(O)cc(Nc2ccnc3cc4c(cc23)S(=O)(=O)C=C4C2CC2)c1` [Compound A99], the viability at 20 µM rises from 11% to 72.7%.

Compared with `CC1=C(C)S(=O)(=O)c2cc3c(Nc4n[nH]c5ccc(F)cc45)ccnc3cc21` [Compound A84], `CC1(C)C(=O)c2cc3nccc(Nc4n[nH]c5ccc(F)cc45)c3cc2S1(=O)=O` [Compound B19] is lower in viability at 20 µM: 18.1% for the first, 7.2% for the second.

First: CC1=C(C)S(=O)(=O)c2cc3c(Nc4cc(O)ccc4C)ccnc3cc21 [Compound A88]
Second: CC1(C)C(=O)c2cc3nccc(Nc4ccc(O)c(C#N)c4)c3cc2S1(=O)=O [Compound B17]
The viability at 20 µM of the first is higher: 41.3% for the first, 22.8% for the second.

Going from `O=S1(=O)C=C(C2CC2)c2cc3nccc(Nc4n[nH]c5ccc(F)cc45)c3cc21` [Compound A90] to `O=S1(=O)C=C(C2CC2)c2cc3nccc(Nc4ccc5nc[nH]c5c4)c3cc21` [Compound A94], the viability at 20 µM falls from 36% to 28.9%.

Compared with `O=C1NCCc2ccc(Nc3ccnc4cc5c(cc34)S(=O)(=O)C=C5C3CC3)cc21` [Compound A93], `N#Cc1cc(Nc2ccnc3cc4c(cc23)S(=O)(=O)C=C4C2CC2)ccc1O` [Compound A98] is higher in viability at 20 µM: 11.1% for the first, 14.8% for the second.

Going from `N#Cc1cccc(Nc2ccnc3cc4c(cc23)S(=O)(=O)C=C4C2CC2)c1` [Compound A97] to `Nc1cncc(Nc2ccnc3cc4c(cc23)S(=O)(=O)C=C4C2CC2)c1` [Compound A103], the viability at 20 µM rises from 22.5% to 46.1%.

First: O=S1(=O)C=Cc2cc3nccc(Nc4ccc5scnc5c4)c3c(O)c21 [Compound A109]
Second: CC1(O)c2cc3nccc(Nc4ccc5scnc5c4)c3cc2S(=O)(=O)C1(C)C (stereo not drawn) [Compound B10, 8-(benzo[d]thiazol-5-ylamino)-3-hydroxy-2,2,3-trimethyl-2,3-dihydrothieno[2,3-g]quinoline 1,1-dioxide]
The viability at 20 µM of the first is lower: 25% for the first, 36.4% for the second.

Going from `CNCCOC1=CS(=O)(=O)c2cc3c(Nc4ccc5scnc5c4)ccnc3cc21` [Compound A111] to `CN(C)CCOC1=CS(=O)(=O)c2cc3c(Nc4ccc5scnc5c4)ccnc3cc21` [Compound A112], the viability at 20 µM falls from 42% to 37.2%.

First: CCC1(C)C(C)c2cc3nccc(Nc4ccc5scnc5c4)c3cc2S1(=O)=O (stereo not drawn) [Compound B5]
Second: CC1c2cc3nccc(Nc4ccc5scnc5c4)c3cc2S(=O)(=O)C1(C)CC1CC1 (stereo not drawn) [Compound B7]
The viability at 20 µM of the first is higher: 39.2% for the first, 19.1% for the second.

Compared with `C=CCC1(C)C(=O)c2cc3nccc(Nc4ccc5scnc5c4)c3cc2S1(=O)=O` (stereo not drawn) [Compound B6], `O=C1c2cc3nccc(Nc4ccc5scnc5c4)c3cc2S(=O)(=O)C12CC=CC2` [Compound B22] is lower in viability at 20 µM: 42.5% for the first, 23.5% for the second.

Going from `CC1(C)C(O)(C2CC2)c2cc3nccc(Nc4ccc5scnc5c4)c3cc2S1(=O)=O` (stereo not drawn) [Compound B11] to `O=S1(=O)CC2(COC2)c2cc3nccc(Nc4ccc5scnc5c4)c3cc21` [Compound B28, 8′-(benzo[d]thiazol-5-ylamino)-2′H-spiro[oxetane-3,3′-thieno[2,3-g]quinoline] 1′, 1′-dioxide], the viability at 20 µM falls from 26.2% to 15%.

Going from `CC1(C)C(=O)c2c(cc3c(Nc4ccc5scnc5c4)ccnc3c2C2CC2)S1(=O)=O` [Compound B12, 8-(benzo[d]thiazol-5-ylamino)-4-cyclopropyl-2,2-dimethylthieno[2,3-g]quinolin-3(2H)-one 1,1-dioxide] to `O=C1c2c(cc3c(Nc4ccc5scnc5c4)ccnc3c2Cl)S(=O)(=O)C12CC=CC2` [Compound B21], the viability at 20 µM falls from 10.3% to 4.9%.

Going from `Cc1n[nH]c(Nc2ccnc3cc4c(cc23)S(=O)(=O)C(C)(C)C4=O)c1C` [Compound B18] to `O=S1(=O)c2cc3c(Nc4ccc5scnc5c4)ccnc3cc2OCC12CC2` [Compound B25], the viability at 20 µM rises from 22.7% to 70.7%.

First: O=S1(=O)CC(c2ccccc2)c2cc3nccc(Nc4ccc5scnc5c4)c3cc21 (stereo not drawn) [Compound B23]
Second: COc1ccc(C2CS(=O)(=O)c3cc4c(Nc5ccc6scnc6c5)ccnc4cc32)cc1 (stereo not drawn) [Compound B24]
The viability at 20 µM of the first is lower: 12.7% for the first, 16.5% for the second.

`O=S1(=O)c2cc3c(Nc4ccc5scnc5c4)ccnc3cc2OCC12CCC2` [Compound B26] gave a viability at 20 µM of 72.6%.
